Measured values published in ChEMBL document CHEMBL1201862, “PubChem BioAssay data set” (2004).
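1) Cells in 96-well plates. 2) Compound, 48 h, 5 concentrations. 3) Linear interpolation between surrounding doses. 4) Unreached endpoint = highest concentration. At the GI50, growth is halved.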 Calls of active or inactive are those of the source. Cut-off read from the data, not from the text of the source: active = GI50 up to about 1.1 µM and inactive = higher.

Legend:
Assay in all cases: NCI tumour cell line growth inhibition, 48 h
786-0 = tested on: 786-0
A549 = tested on: A549
ACHN = tested on: ACHN
CAKI-1 = tested on: CAKI-1
COLO 205 = tested on: COLO 205
DU-145 = tested on: DU-145
HCT-116 = tested on: HCT-116
HCT-15 = tested on: HCT-15
HL-60 = tested on: HL-60
HOP-62 = tested on: HOP-62
HOP-92 = tested on: HOP-92
HT-29 = tested on: HT-29
Hs-578T = tested on: Hs-578T
IGROV-1 = tested on: IGROV-1
K562 = tested on: K562
KM12 = tested on: KM12
M14 = tested on: M14
MCF7 = tested on: MCF7
MDA-MB-231 = tested on: MDA-MB-231
MDA-MB-435 = tested on: MDA-MB-435
MOLT-4 = tested on: MOLT-4
Malme-3M = tested on: Malme-3M
NCI-H226 = tested on: NCI-H226
NCI-H23 = tested on: NCI-H23
NCI-H460 = tested on: NCI-H460
NCI-H522 = tested on: NCI-H522
NCI/ADR-RES = tested on: NCI/ADR-RES
OVCAR-3 = tested on: OVCAR-3
OVCAR-4 = tested on: OVCAR-4
OVCAR-5 = tested on: OVCAR-5
OVCAR-8 = tested on: OVCAR-8
PC-3 = tested on: PC-3
RXF 393 = tested on: RXF 393
SF-268 = tested on: SF-268
SF-295 = tested on: SF-295
SF-539 = tested on: SF-539
SK-MEL-28 = tested on: SK-MEL-28
SK-MEL-2 = tested on: SK-MEL-2
SK-MEL-5 = tested on: SK-MEL-5
SK-OV-3 = tested on: SK-OV-3
SN12C = tested on: SN12C
SNB-19 = tested on: SNB-19
SNB-75 = tested on: SNB-75
SR = tested on: SR
SW-620 = tested on: SW-620
T47D = tested on: T47D
TK-10 = tested on: TK-10
U-251 = tested on: U-251
UACC-257 = tested on: UACC-257
UACC-62 = tested on: UACC-62
UO-31 = tested on: UO-31

O=C(Nc1ccc(N=C=S)cc1Cl)c1cc(Br)cc(Br)c1O
GI50 (786-0): 26.3 µM (inactive) | GI50 (A549): 25.8 µM (inactive) | GI50 (ACHN): 27 µM (inactive) | GI50 (CAKI-1): 43.1 µM (inactive) | GI50 (COLO 205): 27.2 µM (inactive) | GI50 (DU-145): 15.9 µM (inactive) | GI50 (HCT-116): 16.3 µM (inactive) | GI50 (HCT-15): 16.4 µM | GI50 (HL-60): 34.5 µM (inactive) | GI50 (HOP-62): 30.6 µM (inactive) | GI50 (HOP-92): 14.1 µM (inactive) | GI50 (HT-29): 19.8 µM (inactive) | GI50 (Hs-578T): 25.6 µM (inactive) | GI50 (IGROV-1): 19.4 µM (inactive) | GI50 (K562): 32.8 µM (inactive) | GI50 (KM12): 27 µM (inactive) | GI50 (M14): 33.7 µM (inactive) | GI50 (MCF7): 31.5 µM (inactive) | GI50 (MDA-MB-231): 21.5 µM (inactive) | GI50 (MDA-MB-435): 28.1 µM (inactive) | GI50 (MOLT-4): 24.2 µM (inactive) | GI50 (Malme-3M): 37.8 µM (inactive) | GI50 (NCI-H226): 18.5 µM (inactive) | GI50 (NCI-H23): 26.7 µM (inactive) | GI50 (NCI-H460): 32.6 µM (inactive) | GI50 (NCI-H522): 31.3 µM (inactive) | GI50 (NCI/ADR-RES): 24.2 µM (inactive) | GI50 (OVCAR-3): 36.7 µM (inactive) | GI50 (OVCAR-4): 27.1 µM (inactive) | GI50 (OVCAR-5): 23.7 µM (inactive) | GI50 (OVCAR-8): 18.2 µM (inactive) | GI50 (PC-3): 19 µM (inactive) | GI50 (RXF 393): 43.9 µM (inactive) | GI50 (SF-268): 36.9 µM (inactive) | GI50 (SF-295): 31.1 µM (inactive) | GI50 (SF-539): 23.9 µM (inactive) | GI50 (SK-MEL-28): 30.4 µM (inactive) | GI50 (SK-MEL-2): 31.6 µM (inactive) | GI50 (SK-MEL-5): 23.9 µM (inactive) | GI50 (SK-OV-3): 42.9 µM (inactive) | GI50 (SN12C): < 0.01 µM (active) | GI50 (SNB-19): 24.6 µM (inactive) | GI50 (SNB-75): 31.1 µM (inactive) | GI50 (SR): 28.6 µM (inactive) | GI50 (SW-620): 27.3 µM (inactive) | GI50 (T47D): 39.7 µM (inactive) | GI50 (TK-10): 27.9 µM (inactive) | GI50 (U-251): 22.2 µM (inactive) | GI50 (UACC-257): 21.4 µM (inactive) | GI50 (UACC-62): 18.9 µM (inactive) | GI50 (UO-31): 30.3 µM (inactive)
